# From PubChem BioAssay AID1963841 (Molecular Pharmacology Branch, DTP, NCI, 2024)
# System: 439559-082-T-J2-PDC spheroid viability
# Assay: Anticancer human tumor 439559-082-T-J2-PDC patient-derived colon adenocarcinoma cell line growth inhibition [POLQ]
# Conditions: spheroids with HUVEC and MSC; for IC50: curve of first compound; for viability, T/C: stronger effect = lower value
# How it was run: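 PDC + HUVEC + MSC complex spheroids; POLQ inhibitors ± partner drugs; top conc. at/near clinical Cmax, else 10 microM (SN-38 1 microM), half-log dilutions; 37 degrees C, 5% CO2.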
# [1] = second compound 0.0316 µM, first compound 0.0316 µM
# [2] = second compound 0.0316 µM, first compound 0.1 µM
# [3] = second compound 0.0316 µM, first compound 0.316 µM
# [4] = second compound 0.0316 µM, first compound 1 µM
# [5] = second compound 0.0316 µM, first compound 3.16 µM
# [6] = second compound 0.0316 µM, first compound 10 µM
# [7] = second compound 0.1 µM, first compound 0.0316 µM
# [8] = second compound 0.1 µM, first compound 0.1 µM
# [9] = second compound 0.1 µM, first compound 0.316 µM
# [10] = second compound 0.1 µM, first compound 1 µM
# [11] = second compound 0.1 µM, first compound 3.16 µM
# [12] = second compound 0.1 µM, first compound 10 µM
# [13] = second compound 0.316 µM, first compound 0.0316 µM
# [14] = second compound 0.316 µM, first compound 0.1 µM
# [15] = second compound 0.316 µM, first compound 0.316 µM
# [16] = second compound 0.316 µM, first compound 1 µM
# [17] = second compound 0.316 µM, first compound 3.16 µM
# [18] = second compound 0.316 µM, first compound 10 µM
# [19] = second compound 1 µM, first compound 0.0316 µM
# [20] = second compound 1 µM, first compound 0.1 µM
# [21] = second compound 1 µM, first compound 0.316 µM
# [22] = second compound 1 µM, first compound 1 µM
# [23] = second compound 1 µM, first compound 3.16 µM
# [24] = second compound 1 µM, first compound 10 µM
# [25] = second compound 3.16 µM, first compound 0.0316 µM
# [26] = second compound 3.16 µM, first compound 0.1 µM
# [27] = second compound 3.16 µM, first compound 0.316 µM
# [28] = second compound 3.16 µM, first compound 1 µM
# [29] = second compound 3.16 µM, first compound 3.16 µM
# [30] = second compound 3.16 µM, first compound 10 µM
# [31] = second compound 10 µM, first compound 0.0316 µM
# [32] = second compound 10 µM, first compound 0.1 µM
# [33] = second compound 10 µM, first compound 0.316 µM
# [34] = second compound 10 µM, first compound 1 µM
# [35] = second compound 10 µM, first compound 3.16 µM
# [36] = second compound 10 µM, first compound 10 µM
# 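Also: spheroids exposed to compounds for seven days before readout.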
# 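For viability, T/C in this document: 100% = DMSO vehicle control viability.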
compound,measurement,setting,value
CC1COCCN1c1cc(C2(O)CC3CCC(C2)O3)c2cnn(-c3ccn[nH]3)c2n1 (centres undefined) + Nc1ccc(C#CCN(C(=O)Cc2ncc(C(F)(F)F)cc2C(F)(F)F)c2ccc(F)cc2)nn1,IC50,second compound 0.0316 µM,> 10 µM
same,IC50,second compound 0.1 µM,> 10 µM
same,IC50,second compound 0.316 µM,> 10 µM
same,IC50,second compound 1 µM,> 10 µM
same,IC50,second compound 3.16 µM,> 10 µM
same,IC50,second compound 10 µM,> 10 µM
same,"viability, T/C",[1],97.8%
same,"viability, T/C",[2],88.4%
same,"viability, T/C",[3],77%
same,"viability, T/C",[4],62.4%
same,"viability, T/C",[5],59.4%
same,"viability, T/C",[6],51.4%
same,"viability, T/C",[7],102%
same,"viability, T/C",[8],85.8%
same,"viability, T/C",[9],79.4%
same,"viability, T/C",[10],60.3%
same,"viability, T/C",[11],56.9%
same,"viability, T/C",[12],54.4%
same,"viability, T/C",[13],126%
same,"viability, T/C",[14],73.7%
same,"viability, T/C",[15],66.8%
same,"viability, T/C",[16],60.1%
same,"viability, T/C",[17],59.2%
same,"viability, T/C",[18],50.2%
same,"viability, T/C",[19],97.1%
same,"viability, T/C",[20],100%
same,"viability, T/C",[21],78.2%
same,"viability, T/C",[22],66.7%
same,"viability, T/C",[23],60.6%
same,"viability, T/C",[24],55%
same,"viability, T/C",[25],82.5%
same,"viability, T/C",[26],80.5%
same,"viability, T/C",[27],82.3%
same,"viability, T/C",[28],60.6%
same,"viability, T/C",[29],59.1%
same,"viability, T/C",[30],58%
same,"viability, T/C",[31],91.7%
same,"viability, T/C",[32],80.7%
same,"viability, T/C",[33],66.9%
same,"viability, T/C",[34],53.1%
same,"viability, T/C",[35],55.3%
same,"viability, T/C",[36],48.6%
C#Cc1c(F)ccc2cc(O)cc(-c3ncc4c(N5CC6CCC(C5)N6)nc(OCC56CCCN5CC(F)C6)nc4c3F)c12 (centres undefined) + Nc1ccc(C#CCN(C(=O)Cc2ncc(C(F)(F)F)cc2C(F)(F)F)c2ccc(F)cc2)nn1,IC50,second compound 0.0316 µM,> 10 µM
same,IC50,second compound 0.1 µM,> 10 µM
same,IC50,second compound 0.316 µM,> 10 µM
same,IC50,second compound 1 µM,> 10 µM
same,IC50,second compound 3.16 µM,> 10 µM
same,IC50,second compound 10 µM,> 10 µM
same,"viability, T/C",[1],94.9%
same,"viability, T/C",[2],84.2%
same,"viability, T/C",[3],71.5%
same,"viability, T/C",[4],73.7%
same,"viability, T/C",[5],71.1%
same,"viability, T/C",[6],70.2%
same,"viability, T/C",[7],103%
same,"viability, T/C",[8],77.3%
same,"viability, T/C",[9],68%
same,"viability, T/C",[10],82%
same,"viability, T/C",[11],74.5%
same,"viability, T/C",[12],54.6%
same,"viability, T/C",[13],81.3%
same,"viability, T/C",[14],87.2%
same,"viability, T/C",[15],71.9%
same,"viability, T/C",[16],69.9%
same,"viability, T/C",[17],70.6%
same,"viability, T/C",[18],64.9%
same,"viability, T/C",[19],105%
same,"viability, T/C",[20],82.7%
same,"viability, T/C",[21],62.3%
same,"viability, T/C",[22],60.9%
same,"viability, T/C",[23],75.2%
same,"viability, T/C",[24],65%
same,"viability, T/C",[25],79.9%
same,"viability, T/C",[26],84%
same,"viability, T/C",[27],68.4%
same,"viability, T/C",[28],59.1%
same,"viability, T/C",[29],60.4%
same,"viability, T/C",[30],62.7%
same,"viability, T/C",[31],92.7%
same,"viability, T/C",[32],76.9%
same,"viability, T/C",[33],76.5%
same,"viability, T/C",[34],72%
same,"viability, T/C",[35],65.2%
same,"viability, T/C",[36],66.4%
